From article PMC12040169 (PLOS Biology, 2025) come the findings set out here.

This data set in a line: in vitro. Particulars: human, hela cells, % viability.

With `Cc1csc2ncc(C(=O)Nc3ccccc3C#N)c(=O)n12` [CBK287458], the viability at 28.5 h, 10 µM was found to be 95.3%. For the compound `Cc1csc2ncc(C(=O)Nc3ccc(Cl)c(Cl)c3)c(=O)n12` [CBK287459], the viability at 28.5 h, 10 µM is 104%. As for `Cc1ccc(NC(=O)c2cnc3scc(C)n3c2=O)cc1C` [CBK287461], the viability at 28.5 h, 10 µM worked out at 108%. Turning to `Cc1c(Cl)cccc1NC(=O)c1cnc2scc(C)n2c1=O` [CBK287463], the viability at 28.5 h, 10 µM was 117%. As to `Cc1ccc(Cl)cc1NC(=O)c1cnc2scc(C)n2c1=O` [CBK287464], the viability at 28.5 h, 10 µM amounted to 98.7%. As to `Cc1csc2ncc(C(=O)Nc3cc(C(F)(F)F)ccc3Cl)c(=O)n12` [CBK287465], the viability at 28.5 h, 10 µM amounted to 94.4%. As for `O=C(CCn1c(=O)oc2ccccc21)Nc1ccncc1` [CBK287466], the viability at 28.5 h, 10 µM came to 92.5%.

Take `COc1cccc2sc(Nc3nc4ccc(NC(C)=O)cc4s3)nc12` [CBK287468]: the viability at 28.5 h, 10 µM was determined as 94.9%. Turning to `COc1cccc2sc(Nc3nc4ccc(S(C)(=O)=O)cc4s3)nc12` [CBK287472], the viability at 28.5 h, 10 µM is 104%.

As for `COc1cccc2sc(Nc3nnc(-c4cccs4)o3)nc12` [CBK287473], the viability at 28.5 h, 10 µM worked out at 85.4%.

Consider `CCOc1cccc2sc(Nc3nc4ccc(NC(C)=O)cc4s3)nc12` [CBK287474], for which the viability at 28.5 h, 10 µM was 90.8%. In the case of `CC(=O)Nc1ccc2nc(Nc3nc4c(F)cccc4s3)sc2c1` [CBK287475], the viability at 28.5 h, 10 µM was found to be 89.8%. Turning to `CS(=O)(=O)c1ccc2nc(Nc3nc4c(F)cccc4s3)sc2c1` [CBK287478], the viability at 28.5 h, 10 µM was found to be 101%. In the case of `COc1ccc2nc(Nc3nc(-c4cccnc4)cs3)sc2c1` [CBK287482], the viability at 28.5 h, 10 µM turned out to be 89.1%.

With `COc1ccc2nc(Nc3nc(C)c(C(C)=O)s3)sc2c1` [CBK287483], the viability at 28.5 h, 10 µM was 94.8%. Turning to `COc1ccc2nc(NCc3ccccc3)sc2c1` [CBK287485], the viability at 28.5 h, 10 µM worked out at 66.8%.

For `COc1ccc2nc(Nc3nnc(-c4ccco4)o3)sc2c1` [CBK287486], the viability at 28.5 h, 10 µM is 102%. In the case of `Fc1ccc2nc(Nc3nc(-c4ccncc4)cs3)sc2c1` [CBK287487], the viability at 28.5 h, 10 µM is 105%. Take `CC(C)(C)c1csc(Nc2nc3cc4c(cc3s2)OCO4)n1` [CBK287491]: the viability at 28.5 h, 10 µM stood at 93.9%.

Turning to `c1coc(-c2nnc(Nc3nc4cc5c(cc4s3)OCO5)o2)c1` [CBK287492], the viability at 28.5 h, 10 µM turned out to be 89.8%. Turning to `COc1ccc2nc(N3CCc4ccccc4C3)sc2c1` [CBK287493], the viability at 28.5 h, 10 µM stood at 102%. Consider `c1c2c(cc3sc(N4CCCC4)nc13)OCCO2` [CBK287496], for which the viability at 28.5 h, 10 µM was determined as 69.6%. `c1ccc2c(c1)CCN(c1nc3cc4c(cc3s1)OCCO4)C2` [CBK287498]: the viability at 28.5 h, 10 µM is 82.8%.

Turning to `CCn1c(C2CC(=O)N(c3ccc(C)cc3C)C2)nc2ccccc21` (centres unmarked) [CBK287505], the viability at 28.5 h, 10 µM was 83.1%.

Consider `O=c1cc(N2CCN(c3ccccc3)CC2)[nH]c(=O)n1-c1ccccc1Cl` [CBK287506], for which the viability at 28.5 h, 10 µM is 101%.

`O=c1cc(Nc2ccc3c(c2)OCO3)[nH]c(=O)n1-c1ccc(Cl)cc1` [CBK287507]: the viability at 28.5 h, 10 µM worked out at 86.6%. `Cc1ccccc1-n1c(=O)cc(N2CCN(c3ccc(F)cc3)CC2)[nH]c1=O` [CBK287508]: the viability at 28.5 h, 10 µM was determined as 95.1%.

Turning to `O=C(CSc1ncnc2ccccc12)NCc1ccco1` [CBK287509], the viability at 28.5 h, 10 µM amounted to 98.8%.

Turning to `O=C(CSc1ncnc2ccccc12)Nc1nc2ccccc2s1` [CBK287510], the viability at 28.5 h, 10 µM worked out at 85.5%. Regarding `CC1CCN(C(=O)CSc2ccc3nnc(-c4ccccc4)n3n2)CC1` [CBK287512], the viability at 28.5 h, 10 µM is 77.9%. For the compound `O=C(CSc1ccc2nnc(-c3ccccc3)n2n1)Nc1ccccc1` [CBK287513], the viability at 28.5 h, 10 µM was 82.7%. To `O=C(CSc1ccc2nnc(-c3ccccc3)n2n1)Nc1nccs1` [CBK287516] belongs 98.6%. Regarding `Cc1ccc(-c2nnc3ccc(SCC(=O)NC4CCCC4)nn23)cc1` [CBK287523], the viability at 28.5 h, 10 µM came out at 88.8%.

As to `CC(=O)C(Sc1ccc2nnc(-c3ccc(C)cc3)n2n1)C(C)=O` [CBK287525], the viability at 28.5 h, 10 µM worked out at 98.9%. As to `O=C(Cn1cnc2c(cnn2-c2ccccc2)c1=O)N1CCc2ccccc21` [CBK287529], the viability at 28.5 h, 10 µM was 91.7%. In the case of `Cc1ccccc1NC(=O)Cn1cnc2c(cnn2-c2ccccc2)c1=O` [CBK287530], the viability at 28.5 h, 10 µM came out at 104%. To `Cc1ccc(-n2ncc3c(=O)n(CC(=O)N4CCCCC4)cnc32)cc1` [CBK287532] belongs 101%; to `Cc1ccc(NC(=O)Cn2cnc3c(cnn3-c3ccc(C)cc3)c2=O)cc1` [CBK287534], 104%; to `Cc1ccc(-n2ncc3c(=O)n(CC(=O)NC4CCCCC4)cnc32)cc1` [CBK287536], 78.1%. As for `Cc1ccc(-n2ncc3c(=O)n(CC(=O)Nc4ccccc4)cnc32)cc1C` [CBK287539], the viability at 28.5 h, 10 µM was 87.3%. On to `Cc1ccc(Cn2cnc3c(cnn3-c3ccc(C)c(C)c3)c2=O)cc1` [CBK287540], for which the viability at 28.5 h, 10 µM turned out to be 108%. Consider `CC(C)(C)n1ncc2c(=O)n(CC(=O)Nc3ccccc3)cnc21` [CBK287541], for which the viability at 28.5 h, 10 µM came to 115%. To `Cc1ccc(-n2nnc3c(SCC(=O)Nc4ccc(F)cc4)ncnc32)cc1` [CBK287542] belongs 112%; to `COc1cccc(-n2nnc3c(SCC(N)=O)ncnc32)c1` [CBK287543], 75%; to `O=S(=O)(NCCc1csc(-c2cccnc2)n1)c1cccnc1` [CBK287546], 91.8%. Consider `O=S(=O)(Nc1ccc(-c2nc3cccnc3s2)cc1)c1ccccc1` [CBK287547], for which the viability at 28.5 h, 10 µM is 116%. As to `COc1ccc(-n2c(=O)[nH]cc(C(=O)Nc3cccc(Cl)c3C)c2=O)cc1` [CBK287549], the viability at 28.5 h, 10 µM worked out at 118%.

As for `Cc1ccc(-n2c(=O)[nH]cc(C(=O)Nc3ccc(C)c(F)c3)c2=O)cc1C` [CBK287550], the viability at 28.5 h, 10 µM stood at 97.5%. For `Cc1ccc(-n2c(=O)[nH]cc(C(=O)Nc3cccc(Cl)c3C)c2=O)cc1C` [CBK287551], the viability at 28.5 h, 10 µM turned out to be 101%. On to `CCOc1ccc(NC(=O)c2c[nH]c(=O)n(-c3ccc(F)cc3)c2=O)cc1` [CBK287553], for which the viability at 28.5 h, 10 µM came to 107%. For the compound `CCNC(=O)c1cc2c(=O)n3ccccc3nc2n1C` [CBK287556], the viability at 28.5 h, 10 µM turned out to be 104%. Regarding `O=C(Cn1cnc2c(oc3ccccc32)c1=O)Nc1ccc2c(c1)OCO2` [CBK287557], the viability at 28.5 h, 10 µM was found to be 118%. For `CC1(C)CC(=O)c2sc(NC(=O)CN3C(=O)CCC3=O)nc2C1` [CBK287558], the viability at 28.5 h, 10 µM turned out to be 98.2%.

Consider `CCC(=O)Nc1ccc(-c2nc3ccccc3[nH]2)cc1` [CBK287561], for which the viability at 28.5 h, 10 µM was found to be 98.7%. For the compound `O=C(Nc1nc(-c2cccnc2)cs1)c1ccccc1` [CBK287569], the viability at 28.5 h, 10 µM is 91.3%.

For `CC(=O)Nc1ccc2nc(NC(=O)c3ccc4c(c3)OCCO4)sc2c1` [CBK287571], the viability at 28.5 h, 10 µM was 101%. Consider `O=C(O)CCCNc1ncnc2c1oc1ccccc12` [CBK287573], for which the viability at 28.5 h, 10 µM turned out to be 101%. On to `COc1ccc(-n2c(=O)c3ccccc3n(CC(=O)NC3CCCC3)c2=O)cc1` [CBK287574], for which the viability at 28.5 h, 10 µM was determined as 92.2%. On to `Cn1cnnc1SCC(=O)N1CCc2ccccc21` [CBK287576], for which the viability at 28.5 h, 10 µM stood at 82.7%. On to `COc1cc(C)c(C)cc1S(=O)(=O)n1cnc2ccccc21` [CBK287578], for which the viability at 28.5 h, 10 µM came out at 89.2%. For `COc1cc(C)c(C)cc1S(=O)(=O)n1ccnc1C` [CBK287579], the viability at 28.5 h, 10 µM amounted to 108%. For the compound `OCCN1CCN(c2ncnc3scc(-c4ccccc4)c23)CC1` [CBK287582], the viability at 28.5 h, 10 µM worked out at 94.6%. As to `COCCNc1ncnc2sc3c(c12)CCCC3` [CBK287583], the viability at 28.5 h, 10 µM worked out at 98.4%. As to `O=C(CSc1nnc(-c2ccncc2)o1)Nc1ccccc1` [CBK287586], the viability at 28.5 h, 10 µM turned out to be 91.3%. To `COc1ccc(C(=O)Nc2nnc(-c3ccccc3OC)o2)cc1OC` [CBK287589] belongs 86.3%; to `COc1ccccc1-c1nnc(NC(=O)COc2ccccc2)o1` [CBK287590], 106%; to `COc1ccc(-c2nnc(NC(=O)C3CCCCC3)o2)cc1` [CBK287592], 83.3%. `CCCC(=O)Nc1nnc(-c2ccc(Cl)cc2)o1` [CBK287594]: the viability at 28.5 h, 10 µM amounted to 91.8%. Take `O=C(Nc1nnc(-c2ccccc2)o1)c1ccc2ncsc2c1` [CBK287598]: the viability at 28.5 h, 10 µM stood at 94.4%.

On to `O=C(COc1ccccc1)Nc1nnc(-c2ccccc2)o1` [CBK287599], for which the viability at 28.5 h, 10 µM came out at 99.8%.

`CN(C)c1cccc(C(=O)Nc2nc3ccc(S(N)(=O)=O)cc3s2)c1` [CBK287602]: the viability at 28.5 h, 10 µM was 95.8%.

Consider `Cc1ccc(C(=O)Nc2nc3ccc(S(=O)(=O)N(C)C)cc3s2)cc1` [CBK287603], for which the viability at 28.5 h, 10 µM amounted to 93.1%. Take `O=S(=O)(c1ccccc1)c1nc(-c2ccco2)oc1NCc1cccnc1` [CBK287610]: the viability at 28.5 h, 10 µM worked out at 69.5%. On to `OCCN1CCN(C(c2ccccc2)c2sc3ncnn3c2O)CC1` (centres unmarked) [CBK287611], for which the viability at 28.5 h, 10 µM was found to be 82.5%.

Consider `Cc1cc(C)c2sc(NC(=O)c3ccccc3)nc2c1` [CBK287614], for which the viability at 28.5 h, 10 µM amounted to 104%. To `O=C(Nc1nc2c(F)cc(F)cc2s1)c1ccc(F)cc1` [CBK287617] belongs 101%. In the case of `O=C(CSc1ccc2nnc(-c3ccccn3)n2n1)N1CCCCC1` [CBK287621], the viability at 28.5 h, 10 µM came to 101%. For `CCCCC(Sc1ccc2nnc(-c3ccccn3)n2n1)C(=O)O` (centres unmarked) [CBK287622], the viability at 28.5 h, 10 µM was 112%. To `CCC(Sc1ccc2nnc(-c3cccnc3)n2n1)C(=O)O` (centres unmarked) [CBK287623] belongs 110%; to `CC(=O)Nc1nnc(SCC(=O)NCc2ccc3c(c2)OCO3)s1` [CBK287626], 94%. Regarding `NC(=O)CSc1nnc(NC(=O)c2ccc(Cl)cc2Cl)s1` [CBK287627], the viability at 28.5 h, 10 µM worked out at 86.4%. Turning to `NC(=O)CSc1nnc(NC(=O)c2ccccc2)s1` [CBK287628], the viability at 28.5 h, 10 µM came to 92.8%.

As for `Cc1ccc(C(=O)NCCc2nnc3ccc(Cl)nn23)cc1` [CBK287636], the viability at 28.5 h, 10 µM was found to be 89.5%.
